Source: US7642261B2, “Use of 1-[4-(5-cyanoindol-3-yl)butyl]-4-(2-carbamoyl-benzofuran-5-yl)-piperazine and its physiologically acceptable salts” (Merck Patent GmbH, priority 2002, dated 2010)

Columns and labels:
rats [1] = assay: Passive Avoidance test with scopolamine (model for dementia); format: in vivo; settings: 10 mg/kg p.o., compared to untreated rats
Text: Typical models for dementia, Alzheimer's disease and multi-infarct are the Passive Avoidance test in rats [S. D. Glick and B. Zimmerberg, Behav. Biol., 1972, 7: 245-254; D. K. Rush, Behav. Neural Biol., 1988, 50: 255-274] and the testing of memory functions in the Morris Water Maze in aged rats [R. Morris, J. Neurosci. Methods, 1984, 11: 47-60, F. H. Gage et al. Neurobiol. Aging. 1984, 5: 43-48].
For the Passive Avoidance test, the apparatus is a runway separated from a dark compartment by a small door. The amnestic drug scopolamine is administered before the animal is submitted to an aquisition trial: the rat is placed on the entry of the runway opposite to the dark compartment, the latency to enter the dark compartment is recorded, and once the rat has entered the dark compartment, the door is closed and a foot schock is administered via the gridfloor. A retention trial is performed 48 h later identical to the aquisition trial (without scopolamine) and the latency to enter the dark compartment recorded again. […]

rats [2] = assay: Animal models of sexual function (behavioural measures for sexual activity); format: in vivo; settings: penile erection, ejaculatory behaviour, mating frequency in male rats, receptive behaviours in female rats
Text: In animal models, various behavioural measures for sexual function can be used in animal models depending on the targeted dysfunction in humans, e.g. reduced libido, anorgasmia, or ejaculation disorders. Measures for sexual activity in animals include fascilitation or prolongation of penile erection, ejaculatory behaviour or frequency of mating behaviour in male rats, or the percentage of receptive behaviours in female rats [e.g.: S. Ahlenius and K. Larsson, Neurochem. Res., 1997, 22: 1065-1070; S. Ahlenius and K. Larsson, Psychopharmacology, 1998, 137: 374-382; J. Vega-Matuszcyk et al., Pharmacol. Biochem. Behav., 1998, 60: 527-532; J. M. Cantor et al., Psychopharmacology, 1999; 144: 355-362]. 1-[4-(5-cyancindol-3-yl)butyl]-4-(2-carbamoyl-benzofuran-5-yl)-piperazine or one of its physiologically acceptable salts, in particular 1-[4-(5-cyanoindol-3-yl)butyl]-4-(2-carbamoyl-benzofuran-5-yl)-piperazine hydrochloride, were effective on various measures mentioned before.

For Cl.N#Cc1ccc2[nH]cc(CCCCN3CCN(c4ccc5oc(C(N)=O)cc5c4)CC3)c2c1 [1-[4-(5-cyanoindol-3-yl)butyl]-4-(2-carbamoyl-benzofuran-5-yl)-piperazine hydrochloride], the “increase of latency to enter the dark compartment in the first retention trial” value (rats [1]) was 78% and the “effect on measures for sexual activity” value (rats [2]) was “effective”.
